Assay results published in patent US20090047246A1, “NOVEL INHIBITORS OF HEPATITIS C VIRUS REPLICATION” (InterMune, Inc., priority 2007, published 2009).
Read-outs that look alike come from different tables or passages of the source.

Target: T1, HCV NS3 helicase (Hepatitis C virus genotype 1b, UniProt P26663)
T1 construct: full-length NS3 (1-631), purified at Array BioPharma
Experiment: HCV Helicase Prompt FRET Assay (Example A)
Type: biochemical
Details: read-out: IC50 Activity
Method in brief: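 Initial unwinding rates, monitored as FAM fluorescence gain (ex 485, em 535) over ~30 min at room temperature, gave IC50 via 4- or 5-parameter logistic fits. Reactions: 50 nM quenched duplex, 250 nM capture strand, 300 μM ATP, 5–6 nM NS3 1-631 after 5 min compound preincubation, MOPS pH 7.0 buffer, 2% DMSO.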

[1] = HCV NS3 helicase, tables do not say whether Example A or Example B assay
[2] = Table 35, compounds made using Scheme 53
[3] = Table 31, compounds made using Schemes 38-45
[4] = Table 34, compounds made using Schemes 51-52
[5] = Table 36, compounds made using Scheme 54
[6] = Table 21, compounds made using Scheme 28

T1 sequence (P26663 1027-1657): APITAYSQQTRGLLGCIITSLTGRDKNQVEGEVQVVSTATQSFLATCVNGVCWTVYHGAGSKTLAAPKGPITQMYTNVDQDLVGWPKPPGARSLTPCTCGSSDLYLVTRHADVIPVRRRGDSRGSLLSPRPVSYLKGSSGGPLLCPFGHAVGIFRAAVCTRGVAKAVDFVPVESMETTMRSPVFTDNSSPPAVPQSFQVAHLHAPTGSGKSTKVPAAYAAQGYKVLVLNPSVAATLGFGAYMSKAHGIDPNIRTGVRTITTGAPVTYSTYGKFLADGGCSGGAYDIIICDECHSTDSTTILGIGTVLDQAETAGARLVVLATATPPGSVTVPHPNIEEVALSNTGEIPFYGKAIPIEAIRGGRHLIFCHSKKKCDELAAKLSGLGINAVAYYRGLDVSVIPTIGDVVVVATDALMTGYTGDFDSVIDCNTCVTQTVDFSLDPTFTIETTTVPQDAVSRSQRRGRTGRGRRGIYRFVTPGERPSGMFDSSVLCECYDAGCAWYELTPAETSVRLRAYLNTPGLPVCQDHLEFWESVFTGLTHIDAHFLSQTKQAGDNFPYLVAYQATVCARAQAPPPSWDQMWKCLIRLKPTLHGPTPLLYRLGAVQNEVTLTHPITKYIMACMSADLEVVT

SMILES | IC50 [1] [µM] | other results
O=C(O)Cc1c(Cc2csc3ccc(Cl)cc23)n(-c2ccc([N+](=O)[O-])cc2)c2cc(OCc3ccccc3)ccc12 [Example 372] | < 10 | 
Cc1ccc(-c2ccc(C(=O)c3[nH]c4ccccc4c3CC(=O)O)cc2)cc1C [Example 262] | 10 to 50 | 
CN(c1cccc(Cn2cc(CC(=O)O)c3ccccc32)c1)c1ccc(C(F)(F)F)cc1C(F)(F)F [Example 545] | 10 to 50 | 
O=C(O)Cc1c(C(=O)c2ccc(Br)cc2)n(Cc2ccccc2)c2ccccc12 [Example 248] | 10 to 50 | 
CCOC(=O)Cc1cn(Cc2cccc3sc(Cl)nc23)c2cc(-c3cc(N)cc(N)c3)ccc12 [Example 794] |  | IC50 [2]: 10 to 50 µM
CCOC(=O)C(Cc1ccccc1)c1c(-c2ccccc2)n(Cc2csc3ccc(Cl)cc23)c2ccccc12 (centres unmarked) [Example 413] | > 50 | 
Nc1cc(-c2ccc3c(CC(=O)O)cn(Cc4csc5ccc(Cl)cc45)c3c2)cc(N)n1 [Example 638] |  | IC50 [3]: 10 to 50 µM
CN(C)C(=O)c1cccc(-c2cccc(Cn3cc(CC(=O)O)c4cc(OCc5ccccc5)ccc43)c2)c1 [Example 117] | 10 to 50 | 
NC(=O)c1ccc(-c2ccc(C(=O)c3[nH]c4ccccc4c3CC(=O)O)cc2)cc1 [Example 265] | 10 to 50 | 
Nc1cc(N)cc(-c2ccc3c(CC(=O)NOCc4ccccc4)cn(Cc4csc5ccc(Cl)cc45)c3c2)c1 [Example 680] |  | IC50 [4]: < 10 µM
O=C(O)Cc1cn(Cc2csc3ccc(Cl)cc23)c2ccccc12 [Example 121] | 10 to 50 | 
OCCc1cn(Cc2csc3ccc(Cl)cc23)c2cc(Br)ccc12 [Example 694] |  | IC50 [4]: > 50 µM
COc1ccccc1Oc1cccc(Cn2cc(CC(=O)O)c3ccccc32)c1 [Example 478] | 10 to 50 | 
CCN(c1cccc(Cn2cc(CC(=O)O)c3ccccc32)c1)c1ccccc1C(F)(F)F [Example 553] | 10 to 50 | 
Cc1cc([N+](=O)[O-])ccc1-n1c2ccccc2c2c(C(=O)O)cccc21 [Example 470] | > 50 | 
O=C(O)Cc1c(Cc2ccc(-c3ccccc3)cc2)n(Cc2ccccc2)c2ccccc12 [Example 277] | 10 to 50 | 
CC(C)c1ccc(Cn2c(C(=O)NCc3nc4ccccc4[nH]3)c(CC(=O)O)c3ccccc32)cc1 [Example 449] | < 10 | 
CC(C)NC(=O)c1c(CC(=O)O)c2cc(Br)ccc2n1Cc1ccc(C(C)C)cc1 [Example 433] | 10 to 50 | 
Cc1cc([N+](=O)[O-])ccc1-n1cc(C=CC(=O)O)c2cc(OCc3ccccc3)ncc21 [Example 333] | > 50 | 
Nc1cc(N)cc(-c2ccc3c(CC(=O)O)cn(Cc4csc5cc(Cl)cc(Cl)c45)c3c2)c1 [Example 787] |  | IC50 [5]: 10 to 50 µM
CN(c1ccc(Cn2cc(CC(=O)O)c3ccccc32)cc1)c1ccc(Cl)c(Cl)c1 [Example 575] |  | IC50 [6]: < 10 µM
O=C(O)Cc1c(C(=O)c2ccc(-c3ccccc3Br)cc2)[nH]c2ccccc12 [Example 270] | 10 to 50 | 
CC(C)c1ccc(Cn2cc(C(=O)C(=O)O)c3ccccc32)cc1 [Example 417] | 10 to 50 | 
O=Cc1c[nH]c2cnc(OCc3ccccc3)cc12 [Example 326] | > 50 | 
Cc1nn(-c2ccccc2)nc1Cn1cc(CC(=O)O)c2ccc(-c3cc(N)cc(N)c3)cc21 [Example 706] |  | IC50 [2]: 10 to 50 µM

SMILES | IC50 [1] [µM] | other results
CC(C)c1ccc(Cn2c(C(=O)NCc3ccc(C(F)(F)F)cc3)c(CC(=O)O)c3ccccc32)cc1 [Example 455] | < 10 | 
COc1cccc(Cn2cc(CC(=O)O)c3cc(Br)ccc32)c1 [Example 111] | 10 to 50 | 
CSc1ccccc1-c1ccc(C(=O)c2[nH]c3ccccc3c2CC(=O)O)cc1 [Example 271] | 10 to 50 | 
O=C(Cn1cc(Cc2nnn[nH]2)c2ccccc21)N1CCN(Cc2ccccc2)CC1 [Example 205] | 10 to 50 | 
CCN(Cc1ccccc1)c1ccc(-n2cc(CC(=O)O)c3ccccc32)cc1 [Example 166] | < 10 | 
CN(c1ccc(Cn2cc(CC(=O)O)c3ccccc32)cc1)c1cccc(F)c1F [Example 568] |  | IC50 [6]: < 10 µM
CS(=O)(=O)c1ccc(-n2cc(CP(=O)(O)O)c3cc(Br)ccc32)cc1 [Example 314] | 10 to 50 | 
CN(c1ccc(Cn2cc(CC(=O)O)c3ccccc32)cc1)c1ccc(C(F)(F)F)cc1C(F)(F)F [Example 580] |  | IC50 [6]: < 10 µM
CCOC(=O)Cc1cn(Cc2csc3ccc(F)cc23)c2cc(-c3cc([N+](=O)[O-])cc([N+](=O)[O-])c3)ccc12 [Example 792] |  | IC50 [2]: > 50 µM
Cc1cc([N+](=O)[O-])ccc1-n1cc(CCC(=O)O)c2cc(Br)ccc21 [Example 386] | 10 to 50 | 
O=C(O)C(Cc1ccccc1)c1c(-c2ccccc2)n(Cc2csc3ccc(Cl)cc23)c2ccccc12 (centres unmarked) [Example 415] | < 10 | 
COc1cccc(N(C)c2cccc(Cn3cc(CC(=O)O)c4ccccc43)c2)c1 [Example 527] | < 10 | 
O=C(O)C(Cc1c[nH]c2ccc(Br)cc12)c1c[nH]c2ccc(Br)cc12 (centres unmarked) [Example 411] | 10 to 50 | 
CN(c1cccc(F)c1)c1cccc(Cn2cc(CC(=O)O)c3ccccc32)c1 [Example 521] | < 10 | 
Oc1cc(Cc2cn(Cc3csc4ccc(Cl)cc34)c3ccccc23)n[nH]1 [Example 213] | 10 to 50 | 
CCOC(=O)Cc1cn(Cc2cccc(N(C)c3cc(Cl)ccc3Cl)c2)c2ccccc12 [Example 548] | < 10 | 
NC(=O)c1cccc(-c2ccc3c(CC(=O)O)cn(Cc4csc5ccc(Cl)cc45)c3c2)c1 [Example 763] |  | IC50 (Table 37, compounds made using Scheme 55): 10 to 50 µM
CCOC(=O)c1ccc(Cn2cc(CC(=O)O)c3cc(OCc4ccccc4)ccc32)o1 [Example 128] | 10 to 50 | 
O=C(O)Cc1c(Cc2cccc(-c3cc(Cl)cc(Cl)c3)c2)oc2ccccc12 [Example 310] | < 10 | 
Cc1cc([N+](=O)[O-])ccc1-n1cc(CC(=O)O)c2cc3c(cc21)OCO3 [Example 344] | > 50 | 
CC(C)Nc1cc(N)cc(-c2ccc3c(CC(=O)O)cn(Cc4csc5ccc(Cl)cc45)c3c2)c1 [Example 650] |  | IC50 [3]: < 10 µM
O=C(O)Cc1cn(Cc2ccc(Oc3ccc(F)c(F)c3)cc2)c2ccccc12 [Example 505] | < 10 | 
O=C(O)Cc1c(Cc2ccc(-c3ccc(Cl)c(Cl)c3)cc2)[nH]c2ccccc12 [Example 280] | < 10 | 
CC(C)c1ccc(Cn2c(C(=O)NC3CCN(C(=O)OC(C)(C)C)CC3)c(CC(=O)O)c3cc(Br)ccc32)cc1 [Example 436] | < 10 | 
O=C(Cc1cn(Cc2cccc(OCc3ccccc3)c2)c2ccc(OCc3ccccc3)cc12)N1CCCCC1 [Example 188] | 10 to 50 | 

SMILES | IC50 [1] [µM] | other results
COc1ccc(N(C)c2ccc(Cn3cc(CC(=O)O)c4ccccc43)cc2)cc1 [Example 564] |  | IC50 [6]: < 10 µM
Cc1cc([N+](=O)[O-])ccc1C(C(=O)O)C1CN(c2ccc([N+](=O)[O-])cc2C)c2ccc(Br)cc21 (centres unmarked) [Example 404] | 10 to 50 | 
O=[N+]([O-])c1ccc(-n2cc(CP(=O)(O)O)c3cc(Br)ccc32)nc1 [Example 317] | < 10 | 
O=C(O)Cc1cn(Cc2csc3ccc(Cl)cc23)c2cc(-c3ccccc3)ccc12 [Example 614] |  | IC50 (Table 26, compounds made using Scheme 33): < 10 µM
CCOC(=O)Cc1cn(Cc2ccc(Oc3ccc(Cl)cc3)cc2)c2cc(-c3cccc(OC(C)=O)c3)ccc12 [Example 605] | > 50 | 
O=C(O)Cc1c(C(=O)c2cccc(-c3ccc(Cl)c(Cl)c3)c2)oc2ccccc12 [Example 243] | < 10 | 
Cc1cc([N+](=O)[O-])ccc1-n1c2ccc(Br)cc2c2c(C(=O)O)cccc21 [Example 471] | 10 to 50 | 
O=C(O)Cc1c(C(=O)c2cccc(Oc3ccccc3)c2)n(CC2CC2)c2ccccc12 [Example 221] | < 10 | 
CN(c1ccc(Cl)cc1)c1cccc(Cn2cc(CC(=O)O)c3ccccc32)c1 [Example 525] | < 10 | 
COc1cccc(Oc2cccc(Cn3cc(CC(=O)O)c4ccccc43)c2)c1 [Example 479] | 10 to 50 | 
O=C(O)Cc1cn(-c2ccc([N+](=O)[O-])cc2[N+](=O)[O-])c2ncc(Br)cc12 [Example 337] | 10 to 50 | 
CC(C)c1ccc(Cn2c(C(=O)N3CCCC3)c(CC(=O)O)c3cc(Br)ccc32)cc1 [Example 431] | 10 to 50 | 
COc1ccccc1N(C)c1ccc(Cn2cc(CC(=O)O)c3ccccc32)cc1 [Example 562] |  | IC50 [6]: 10 to 50 µM
CNc1cc(N)cc(-c2ccc3c(CC(=O)O)cn(Cc4csc5ccc(Cl)cc45)c3c2)c1 [Example 647] |  | IC50 [3]: < 10 µM
CCS(=O)(=O)NC(=O)Cc1cn(Cc2csc3ccc(Cl)cc23)c2ccccc12 [Example 197] | 10 to 50 | 
Nc1nc(-c2ccc3c(CC(=O)O)cn(Cc4csc5ccc(Cl)cc45)c3c2)ncc1F [Example 633] |  | IC50 [3]: 10 to 50 µM
Cc1ccccc1-c1ccc(-n2cc(CC(=O)O)c3ccccc32)cc1 [Example 154] | < 10 | 
COc1ccc(-c2cccc(C(=O)c3[nH]c4ccccc4c3CC(=O)O)c2)cc1 [Example 236] | 10 to 50 | 
O=C(O)C(Cc1csc2ccc(Cl)cc12)c1cn(Cc2csc3ccc(Cl)cc23)c2cc(Br)ccc12 (centres unmarked) [Example 360] | < 10 | 
CC(C)c1ccc(Cn2c(C(=O)N3CCNCC3)c(CC(=O)O)c3cc(Br)ccc32)cc1 [Example 430] | > 50 | 
O=C(O)Cc1cn(-c2ccc(-c3cccc(C(F)(F)F)c3)cc2)c2ccccc12 [Example 152] | < 10 | 
O=C(O)Cc1cn(Cc2cccc(Oc3cc(Cl)ccc3Cl)c2)c2ccccc12 [Example 599] |  | IC50 (Table 23, compounds made using Scheme 30): 10 to 50 µM
Nc1cc(N)cc(-c2ccc3c(CC(=O)O)cn(Cc4cccc5sc(O)nc45)c3c2)c1 [Example 708] |  | IC50 [2]: 10 to 50 µM
Nc1cc(N)cc(-c2ccc3c(CC(=O)O)cn(Cc4csc5c(Cl)cc(F)cc45)c3c2)c1 [Example 726] |  | IC50 [5]: < 10 µM
